Laboratory results from patent US10376520B2, “Methods for the treatment of cardiovascular disorders” (Galapagos NV, priority 2015, dated 2019).

Tested on: RA patients
Assay: LDL determination, Study 2 (RA patients, monotherapy)
Format: in vivo, human
From the text: Randomized, double-blind, placebo-controlled, multicenter, phase IIb dose finding study of Compound 1 (dosed as a [Compound 1:HCl:3H2O]) administered for 24 weeks as monotherapy to subjects with moderately to severely active rheumatoid arthritis who have an inadequate response to methotrexate alone
Double-blind, placebo-controlled, monotherapy study in subjects with moderately to severely active RA who have an inadequate response to methotrexate (MTX) (oral or parenteral).
280 subjects randomized to one of 3 doses of Compound 1 (dosed as a [Compound 1:HCl:3H2O]) or to placebo, given once daily (q.d.).
Twelve weeks of treatment with Compound 1 (dosed as a [Compound 1:HCl:3H2O]) at 50 mg, 100 mg, or 200 mg q.d.; or placebo. At Week 12, all subjects on placebo and the subjects on the 50 mg dose who have not achieved 20% improvement in swollen joint count (SJC66) and tender joint count (TJC68) will be assigned to 100 mg q.d. in a blinded fashion and will continue treatment until Week 24. Subjects in the other groups will maintain their randomized treatment until Week 24.
The determination of [LDL]-cholesterol is made using an automated method taking advantage of the selective micellary solubilization of [LDL]-cholesterol by a nonionic detergent and the interaction of a sugar compound and lipoproteins (VLDL and chylomicrons).
When a detergent is included in the enzymatic method for cholesterol determination (cholesterol esterase, cholesterol oxidase coupling reaction), the relative reactivities of cholesterol in the lipoprotein fractions increase in this order: [HDL]<chylomicrons <VLDL <[LDL]. In the presence of Mg^2+, a sugar compound markedly reduces the enzymatic reaction of the cholesterol measurement in VLDL and chylomicrons. The combination of a sugar compound with detergent enables the selective determination of [LDL]-cholesterol in serum. (Friedewald et al., 1972; Rifai et al., 1992)
Homogeneous enzymatic colorimetric assay.
In the presence of peroxidase, the hydrogen peroxide generated reacts with 4-aminoantipyrine and Sodium N-(2-hydroxy-3-sulfopropyl)-3,5-dimethoxyaniline (HSDA) to form a purple-blue dye.
The color intensity of this dye is directly proportional to the cholesterol concentration and is measured photometrically.
Human serum and plasma samples [LDL] determination was done on a Roche/Hitachi Cobas c 701/702 system which automatically calculate the analyte concentration of each sample. Samples containing precipitates are centrifuged before performing the assay.

[1] = Study 2 12 weeks results, 50 mg q.d., week 12
[2] = Study 2 12 weeks results, 100 mg q.d., week 1
[3] = Study 2 12 weeks results, 100 mg q.d., week 2
[4] = Study 2 12 weeks results, 100 mg q.d., week 4
[5] = Study 2 12 weeks results, 100 mg q.d., week 8
[6] = Study 2 12 weeks results, 100 mg q.d., week 12
[7] = Study 2 12 weeks results, 200 mg q.d., week 1
[8] = Study 2 12 weeks results, 200 mg q.d., week 2
[9] = Study 2 12 weeks results, 200 mg q.d., week 4
[10] = Study 2 12 weeks results, 200 mg q.d., week 8
[11] = Study 2 12 weeks results, 200 mg q.d., week 12
[12] = Study 2 24 weeks results, 50 mg q.d. non responders switching to 100 mg q.d. at week 12, week 1
[13] = Study 2 24 weeks results, 50 mg q.d. non responders switching to 100 mg q.d. at week 12, week 2
[14] = Study 2 24 weeks results, 50 mg q.d. non responders switching to 100 mg q.d. at week 12, week 4
[15] = Study 2 24 weeks results, 50 mg q.d. non responders switching to 100 mg q.d. at week 12, week 8
[16] = Study 2 24 weeks results, 50 mg q.d. non responders switching to 100 mg q.d. at week 12, week 12
[17] = Study 2 24 weeks results, 50 mg q.d. non responders switching to 100 mg q.d. at week 12, week 16
[18] = Study 2 24 weeks results, 50 mg q.d. non responders switching to 100 mg q.d. at week 12, week 20
[19] = Study 2 24 weeks results, 50 mg q.d. non responders switching to 100 mg q.d. at week 12, week 24
[20] = Study 2 24 weeks results, 50 mg q.d. responders, week 1
[21] = Study 2 24 weeks results, 50 mg q.d. responders, week 2
[22] = Study 2 24 weeks results, 50 mg q.d. responders, week 4
[23] = Study 2 24 weeks results, 50 mg q.d. responders, week 8
[24] = Study 2 24 weeks results, 50 mg q.d. responders, week 12

## O=C(Nc1nc2cccc(-c3ccc(CN4CCS(=O)(=O)CC4)cc3)n2n1)C1CC1 [Compound 1, cyclopropanecarboxylic acid {5-[4-(1,1-dioxo-thiomorpholin-4-ylmethyl)-phenyl]-[1,2,4]triazolo[1,5-a]pyridin-2yl}-amide]
[1]
  [LDL] Mean CFB: 0.090 mmol/L
  [LDL] Median CFB: 0.040 mmol/L
[2]
  [LDL] Mean CFB: 0.116 mmol/L
  [LDL] Median CFB: 0.070 mmol/L
[3]
  [LDL] Mean CFB: 0.105 mmol/L
  [LDL] Median CFB: -0.050 mmol/L
[4]
  [LDL] Mean CFB: 0.195 mmol/L
  [LDL] Median CFB: 0.140 mmol/L
[5]
  [LDL] Mean CFB: 0.162 mmol/L
  [LDL] Median CFB: 0.140 mmol/L
[6]
  [LDL] Mean CFB: 0.278 mmol/L
  [LDL] Median CFB: 0.180 mmol/L
[7]
  [LDL] Mean CFB: 0.209 mmol/L
  [LDL] Median CFB: 0.180 mmol/L
[8]
  [LDL] Mean CFB: 0.192 mmol/L
  [LDL] Median CFB: 0.130 mmol/L
[9]
  [LDL] Mean CFB: 0.216 mmol/L
  [LDL] Median CFB: 0.290 mmol/L
[10]
  [LDL] Mean CFB: 0.212 mmol/L
  [LDL] Median CFB: 0.230 mmol/L
[11]
  [LDL] Mean CFB: 0.347 mmol/L
  [LDL] Median CFB: 0.315 mmol/L
[12]
  [LDL] Mean CFB: 0.08 mmol/L
  [LDL] Median CFB: 0.07 mmol/L
[13]
  [LDL] Mean CFB: 0.00 mmol/L
  [LDL] Median CFB: -0.02 mmol/L
[14]
  [LDL] Mean CFB: 0.17 mmol/L
  [LDL] Median CFB: 0.05 mmol/L
[15]
  [LDL] Mean CFB: 0.10 mmol/L
  [LDL] Median CFB: 0.10 mmol/L
[16]
  [LDL] Mean CFB: 0.11 mmol/L
  [LDL] Median CFB: 0.09 mmol/L
[17]
  [LDL] Mean CFB: 0.22 mmol/L
  [LDL] Median CFB: 0.20 mmol/L
[18]
  [LDL] Mean CFB: 0.03 mmol/L
  [LDL] Median CFB: -0.04 mmol/L
[19]
  [LDL] Mean CFB: 0.14 mmol/L
  [LDL] Median CFB: 0.15 mmol/L
[20]
  [LDL] Mean CFB: -0.01 mmol/L
  [LDL] Median CFB: -0.01 mmol/L
[21]
  [LDL] Mean CFB: -0.07 mmol/L
  [LDL] Median CFB: -0.06 mmol/L
[22]
  [LDL] Mean CFB: 0.01 mmol/L
  [LDL] Median CFB: -0.05 mmol/L
[23]
  [LDL] Mean CFB: 0.16 mmol/L
  [LDL] Median CFB: 0.14 mmol/L
[24]
  [LDL] Mean CFB: 0.09 mmol/L
  [LDL] Median CFB: 0.03 mmol/L
